# Results as given in US20140045856A1, “4-Methyl-2,3,5,9,9b-pentaaza-cyclopenta[a]naphthalenes” (BOEHRINGER INGELHEIM INTERNATIONAL GMBH, priority 2012, published 2014).
# pIC50: −log10 of the molar value. Read-outs that look alike come from different tables or passages of the source.
# Experiments:
# [1] = target: PDE2A (Homo sapiens, UniProt O00408); assay: PDE 2A assay with fluorescent substrate (IMAP, fluorescence polarization); format: biochemical; conditions: read-out: PDE2 IC50
# Description: (§1) c) Phosphodiesterase (PDE) 2A and 10 Assay with Fluorescent Substrate
# (§2) The PDE reaction cleaves cAMP to AMP. The IMAP system (Molecular Device) using fluorescence polarization (FP) as detection principle was used to measure enzyme activity. A fluorescent labeled cAMP was used as substrate for the reaction, generating a labeled AMP. The fluorescent AMP binds specifically to the large M(III)-based nano-particles which reduces the rotational speed of the substrate and thus increases its polarization.
# (§3) The inhibition of PDE 2A or 10 enzyme activity was assessed using IMAP-Phosphodiesterase-cAMP fluorescence labeled substrate (Molecular Devices, Order No. R7506), IMAP TR-FRET screening express (Molecular Devices, Order No. R8160, the TR-FRET component will not be used) and PDE 2A or PDE10 protein expressed upon baculovirus infection in SF9 cells. The cells were incubated after infection for ˜3 days and protein production was confirmed by Western Blot. The cells were collected by centrifugation and the pellet frozen in liquid nitrogen before it was resuspended in PBS containing 1% Triton X-100 and protease inhibitors.
# (§4) All reactions were performed in 384 well plates, Perkin Elmer black optiplates and IMAP reaction buffer with 0.1% Tween20 (kit component)
# (§5) Compounds were serial diluted in DMSO. With an intermediate dilution step with reaction buffer DMSO concentration was reduced to achieve 1% DMSO in the assay reaction. Setup of the assay started with 10 μl enzyme (˜10 ng/well, depending on prep. batch), 5 μl compound, reaction was started by addition of 5 μl labeled cAMP (30 nM, final concentration), immediately mixed for 15 seconds on a Eppendorf mixmate (2000 rpm) followed by an incubation at room temperature for 90 minutes in the dark. Reaction is stopped by adding of 60 μl binding buffer for FP/cAMP (kit component).
# (§6) Each assay plate contained wells with vehicle controls (1% DMSO) for the measurement of non-inhibited reaction (=100% control) and wells without enzyme as 0% controls.
# [2] = Metabolic stability in pooled liver microsomes; format: in vitro ADME; conditions: human liver microsomes, 37° C., 1 mg/mL microsomal protein, test compound 1 μM, NADPH
# Procedure: The metabolic stability of the compounds according to the invention has been investigated as follows:
# The metabolic degradation of the test compound was assayed at 37° C. with pooled liver microsomes from various species. The final incubation volume of 100 μl per time point contains TRIS buffer pH 7.6 at room temperature (0.1 M), magnesium chloride (5 mM), microsomal protein (1 mg/mL for human and dog, 0.5 mg/mL for other species) and the test compound at a final concentration of 1 μM. Following a short preincubation period at 37° C., the reactions were initiated by addition of betanicotinamide adenine dinucleotide phosphate, reduced form (NADPH, 1 mM), and terminated by transferring an aliquot into solvent after different time points. […] The half-life was determined by the slope of the semi-logarithmic plot of the concentration-time profile.
# [3] = target: hERG channel (Homo sapiens, UniProt Q12809); assay: hERG channel assay (whole-cell patch clamp, HEK293 cells transfected with hERG cDNA); format: cell-based; conditions: 35° C.
# Description: hERG (Human Ether-à-Go-Go-Related Gene)-Channel Assay
# hERG channel inhibition of compounds of the present invention has been investigated as follows:
# HEK (human embryonic kidney) 293 cells were stably transfected with hERG cDNA. Cells were superfused with a bath solution containing (mM): NaCl (137), KCl (4.0), MgCl2 (1.0), CaCl2 (1.8), Glucose (10), HEPES (10), pH 7.4 with NaOH. Patch pipettes were made from borosilicate glass tubing using a horizontal puller and filled with pipette solution containing (mM): K-aspartate (130), MgCl2 (5.0), EGTA (5.0), K2ATP (4.0), HEPES (10.0), pH 7.2 with KOH. Resistance of the microelectrodes was in the range between 2 and 5 MΩ.
# Stimulation and Recording:
# Membrane currents were recorded using an EPC-10 patch clamp amplifier and PatchMaster software. hERG-mediated membrane currents were recorded at 35° C., using the whole-cell configuration of the patch-clamp technique. Transfected HEK293 cells were clamped at a holding potential of −60 mV and hERG-mediated inactivating tail currents were elicited using a pulse pattern with fixed amplitudes (activation/inactivation: 40 mV for 2000 ms; recovery: […]; ramp to 40 mV in 2 ms; inactivating tail current: 40 mV for 50 ms) repeated at 15 s intervals. During each inter-pulse interval 4 pulses scaled down by a factor of 0.2 were recorded for a P/n leak subtraction procedure. […] compensation was employed up to a level that safely allowed recording devoid of ringing.
# Compound Preparation and Application:
# The different concentrations of the test compound were applied sequentially on each of the different cells investigated. A steady state level of baseline current was measured for at least 6 sweeps prior to the application of the first test compound concentration.
# The test compound was dissolved in DMSO to yield a master stock solution which was diluted further in DMSO to stock solutions needed for the lower concentrations. Final dilutions in extracellular buffer were prepared freshly from these stocks by a 1:1000 dilution step each before starting the experiments.
# Data analysis and IC50 determination:
# Peak current amplitudes were measured 3 ms after the ramp to +40 mV. For baseline and each concentration the peak currents of the three last sweeps before application of the next concentration were averaged. Residual currents ( 1/10) were calculated for each cell as the fraction of actual average peak current and average baseline peak current.
# The logistic concentration-response curve of the following form was fitted to the residual current data using a genetic algorithm:
# C: actual concentration of compound (in μM) IC50: half-inhibitory concentration (in μM) p: Hill slope
# [4] = target: PDE10 (Homo sapiens, UniProt Q9Y233); assay: PDE10 assay with fluorescent substrate (IMAP, fluorescence polarization); format: biochemical
# Description: as §1, §2, §3, §4, §5, §6
# [5] = Animal experiments and sample analysis: plasma, brain and CSF concentration; format: in vivo; conditions: rat; for concentration at 2 h / Kp at 2 h: 2 h between administration and CSF sampling; for concentration at 2 h / concentration at 0.5 h: doses of 10.0 or 5 μmol/kg; for concentration at 0.5 h: 0.5 h between administration and CSF sampling
# Procedure: Test compounds were administered to animals (rat) different routes at doses of 10.0 or 5 μmol/kg, (both oral and intravenous). After compound administration, the animals were sacrificed in a CO2 chamber and CSF samples were carefully collected by puncture of the cisterna magna. Immediately after CSF sampling, blood was taken by heart puncture and brains were dissected out. Blood was collected in EDTA-coated microvettes and plasma was prepared by centrifugation. Concentration of the test compounds in plasma, CSF or brain homogenate was determined using HPLC-MS-MS.
# [6] = brain, read-out: c(brain)/c(plasma)
# Chain of PDE10 (Q9Y233 whole entry, species assumed): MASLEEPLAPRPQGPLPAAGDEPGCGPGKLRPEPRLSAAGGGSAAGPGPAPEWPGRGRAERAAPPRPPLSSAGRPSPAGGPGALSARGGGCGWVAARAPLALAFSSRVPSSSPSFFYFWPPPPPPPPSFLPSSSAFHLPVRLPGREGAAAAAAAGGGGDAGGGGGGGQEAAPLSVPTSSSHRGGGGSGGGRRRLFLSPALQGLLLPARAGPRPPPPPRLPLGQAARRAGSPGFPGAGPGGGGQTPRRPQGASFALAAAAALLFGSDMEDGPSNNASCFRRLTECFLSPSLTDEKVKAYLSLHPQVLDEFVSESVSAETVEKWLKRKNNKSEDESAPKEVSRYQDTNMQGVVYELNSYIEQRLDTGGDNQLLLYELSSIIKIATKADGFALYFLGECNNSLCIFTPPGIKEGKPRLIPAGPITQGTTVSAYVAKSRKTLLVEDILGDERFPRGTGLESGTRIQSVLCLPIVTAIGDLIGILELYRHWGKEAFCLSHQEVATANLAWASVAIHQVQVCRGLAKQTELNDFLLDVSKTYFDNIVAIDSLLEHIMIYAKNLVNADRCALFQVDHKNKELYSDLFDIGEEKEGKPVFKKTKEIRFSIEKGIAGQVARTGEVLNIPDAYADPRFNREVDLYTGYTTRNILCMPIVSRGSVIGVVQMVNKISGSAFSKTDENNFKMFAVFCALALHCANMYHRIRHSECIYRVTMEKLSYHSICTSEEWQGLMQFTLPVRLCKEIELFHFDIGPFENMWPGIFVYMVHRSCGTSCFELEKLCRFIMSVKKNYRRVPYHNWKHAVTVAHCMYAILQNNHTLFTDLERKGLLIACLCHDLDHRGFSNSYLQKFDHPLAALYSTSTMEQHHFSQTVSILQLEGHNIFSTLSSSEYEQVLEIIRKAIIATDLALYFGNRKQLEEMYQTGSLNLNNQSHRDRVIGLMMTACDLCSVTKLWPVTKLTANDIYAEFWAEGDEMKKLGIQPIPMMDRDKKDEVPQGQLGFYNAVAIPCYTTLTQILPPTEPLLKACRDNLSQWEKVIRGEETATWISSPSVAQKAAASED
# Chain of hERG channel (Q12809 whole entry): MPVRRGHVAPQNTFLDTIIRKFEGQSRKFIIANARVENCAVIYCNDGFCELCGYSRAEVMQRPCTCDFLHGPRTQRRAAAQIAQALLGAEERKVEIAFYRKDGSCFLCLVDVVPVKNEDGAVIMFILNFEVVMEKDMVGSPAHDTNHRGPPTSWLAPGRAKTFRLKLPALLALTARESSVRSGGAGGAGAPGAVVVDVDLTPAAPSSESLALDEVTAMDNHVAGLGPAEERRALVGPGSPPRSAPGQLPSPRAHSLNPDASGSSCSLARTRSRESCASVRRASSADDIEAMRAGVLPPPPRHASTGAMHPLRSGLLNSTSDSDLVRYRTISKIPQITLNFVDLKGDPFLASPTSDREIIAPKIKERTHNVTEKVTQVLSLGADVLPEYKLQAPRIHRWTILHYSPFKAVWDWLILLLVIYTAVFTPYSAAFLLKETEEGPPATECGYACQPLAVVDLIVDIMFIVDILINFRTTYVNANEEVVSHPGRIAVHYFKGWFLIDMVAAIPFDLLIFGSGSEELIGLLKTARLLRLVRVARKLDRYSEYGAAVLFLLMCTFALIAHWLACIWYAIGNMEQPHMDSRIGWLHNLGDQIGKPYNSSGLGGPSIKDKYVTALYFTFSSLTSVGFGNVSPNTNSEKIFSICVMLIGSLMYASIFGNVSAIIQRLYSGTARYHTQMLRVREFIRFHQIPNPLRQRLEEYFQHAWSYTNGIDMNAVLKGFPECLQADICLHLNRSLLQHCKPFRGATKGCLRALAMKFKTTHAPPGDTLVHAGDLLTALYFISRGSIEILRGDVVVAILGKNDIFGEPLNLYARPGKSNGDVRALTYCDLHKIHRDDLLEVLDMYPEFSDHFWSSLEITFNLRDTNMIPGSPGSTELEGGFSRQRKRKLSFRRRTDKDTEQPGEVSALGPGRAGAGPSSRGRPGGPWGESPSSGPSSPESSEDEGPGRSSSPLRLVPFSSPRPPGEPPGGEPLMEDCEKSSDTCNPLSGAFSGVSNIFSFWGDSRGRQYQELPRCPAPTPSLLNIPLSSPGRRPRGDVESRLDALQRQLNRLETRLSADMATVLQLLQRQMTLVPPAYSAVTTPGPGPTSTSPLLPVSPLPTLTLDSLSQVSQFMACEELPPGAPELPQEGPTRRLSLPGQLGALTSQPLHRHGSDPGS
# Chain of PDE2A (O00408 whole entry, species assumed): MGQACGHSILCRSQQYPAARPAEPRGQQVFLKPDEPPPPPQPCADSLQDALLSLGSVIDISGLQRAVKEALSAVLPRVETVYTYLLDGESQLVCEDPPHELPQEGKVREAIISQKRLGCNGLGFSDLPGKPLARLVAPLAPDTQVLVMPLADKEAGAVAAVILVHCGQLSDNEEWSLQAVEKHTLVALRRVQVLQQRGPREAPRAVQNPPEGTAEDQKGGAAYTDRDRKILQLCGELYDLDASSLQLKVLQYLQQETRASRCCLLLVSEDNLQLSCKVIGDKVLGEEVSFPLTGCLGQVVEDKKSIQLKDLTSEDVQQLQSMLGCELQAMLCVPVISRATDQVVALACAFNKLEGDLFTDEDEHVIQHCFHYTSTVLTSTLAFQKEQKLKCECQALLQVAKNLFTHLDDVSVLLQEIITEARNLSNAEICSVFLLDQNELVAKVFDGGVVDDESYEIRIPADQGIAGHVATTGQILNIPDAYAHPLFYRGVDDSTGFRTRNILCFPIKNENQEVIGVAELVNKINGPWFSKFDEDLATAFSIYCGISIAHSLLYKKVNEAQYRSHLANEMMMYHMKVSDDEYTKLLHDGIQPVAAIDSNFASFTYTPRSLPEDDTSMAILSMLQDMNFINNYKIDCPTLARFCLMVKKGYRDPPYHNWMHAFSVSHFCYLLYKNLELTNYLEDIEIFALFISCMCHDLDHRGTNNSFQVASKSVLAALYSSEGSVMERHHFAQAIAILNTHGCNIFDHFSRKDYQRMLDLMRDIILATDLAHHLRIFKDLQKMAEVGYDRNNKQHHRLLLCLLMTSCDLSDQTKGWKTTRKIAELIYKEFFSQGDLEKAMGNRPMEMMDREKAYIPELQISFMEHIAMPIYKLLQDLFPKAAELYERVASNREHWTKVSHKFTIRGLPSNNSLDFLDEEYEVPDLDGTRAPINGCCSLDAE
SMILES,pIC50 [1],Half-life - t½ [2] [h],pIC50 [4],pIC50 [3],further results
Cc1nc2cccnc2n2c(-c3cc(C4(O)CCOCC4)ccc3Cl)nnc12 [Example 93],7.07,2.17,5.21,< 5.00,
Cc1nc2ccc(C3CC3)nc2n2c(-c3cc(OCC(C)(C)O)ccc3F)nnc12 [Example 47],8.10,2.17,6.07,< 5.00,"concentration at 2 h ([5]; brain, read-out: conc brain): 441 nM; Kp at 2 h [5, 6]: 0.7; concentration at 2 h ([5]; plasma, read-out: conc plasma): 622 nM; concentration at 2 h ([5]; read-out: conc CSF): 22 nM; Kp at 2 h ([5]; read-out: c(CSF)/c(plasma)): 0.04"
Cc1nc2ccc(C3CC3)nc2n2c(-c3cc(C4(O)CCC4)ccc3Cl)nnc12 [Example 88],9.00,,,< 5.00,
Cc1nc2ccc(C3CC3)nc2n2c(-c3cc(C4(O)CCC4)ccc3F)nnc12 [Example 84],8.22,,6.25,5.20,
Cc1nc2ccc(C3CC3)nc2n2c(-c3cc(OCC(C)(C)O)ccc3Cl)nnc12 [Example 45],,2.17,,< 5.00,"concentration at 2 h ([5]; brain, read-out: conc brain): 183 nM; concentration at 2 h ([5]; plasma, read-out: conc plasma): 801 nM; concentration at 2 h ([5]; read-out: conc CSF): 25 nM"
Cc1nc2cccnc2n2c(-c3cc(OC[C@H](C)O)ccc3Cl)nnc12 [Example 18],,2.17,,< 5.00,"concentration at 0.5 h ([5]; brain, read-out: conc brain): 351 nM; concentration at 0.5 h ([5]; plasma, read-out: conc plasma): 1220 nM; concentration at 0.5 h ([5]; read-out: conc CSF): 163 nM"
Cc1ccc2nc(C)c3nnc(-c4cc(OCCO)ccc4Cl)n3c2n1 [Example 28],,,,< 5.00,
Cc1nc2cccnc2n2c(-c3cc(CC(C)(C)O)ccc3Cl)nnc12 [Example 82],6.70,2.17,5.25,< 5.00,
Cc1ccc2nc(C)c3nnc(-c4cc(OC5CCOCC5)ccc4Cl)n3c2n1 [Example 32],,2.17,,< 5.00,
Cc1nc2cccnc2n2c(-c3cc(OC4COCC4O)ccc3Cl)nnc12 (racemic) [Example 55],,2.17,,< 5.00,
Cc1nc2cccnc2n2c(-c3cc(C4(O)CCC4)ccc3Cl)nnc12 [Example 87],7.13,2.17,5.59,< 5.00,
Cc1nc2ccc(C3CC3)nc2n2c(-c3cc(OC4CCOCC4)ccc3Cl)nnc12 [Example 32a],,,5.13,< 5.00,

# Further lines, with some results ahead:
pIC50 [1],Half-life - t½ [2] [h],pIC50 [4],SMILES,pIC50 [3],further results
8.52,,6.17,Cc1nc2ccc(C3CC3)nc2n2c(-c3cc(CCC(C)(C)O)ccc3F)nnc12 [Example 66],< 5.00,
,2.17,,Cc1ccc(C(C)(C)O)cc1-c1nnc2c(C)nc3ccc(C4CC4)nc3n12 [Example 75],< 5.00,"concentration at 2 h ([5]; brain, read-out: conc brain): 383 nM; Kp at 2 h [5, 6]: 0.34; concentration at 2 h ([5]; plasma, read-out: conc plasma): 1130 nM; concentration at 2 h ([5]; read-out: conc CSF): 31 nM; Kp at 2 h ([5]; read-out: c(CSF)/c(plasma)): 0.03"
7.68,2.17,5.96,Cc1nc2ccc(C3CC3)nc2n2c(-c3cc(C(C)(C)O)ccc3F)nnc12 [Example 76],< 5.00,"concentration at 2 h ([5]; brain, read-out: conc brain): 218 nM; Kp at 2 h [5, 6]: 0.5; concentration at 2 h ([5]; plasma, read-out: conc plasma): 463 nM; concentration at 2 h ([5]; read-out: conc CSF): 18 nM; Kp at 2 h ([5]; read-out: c(CSF)/c(plasma)): 0.04"
8.00,,5.27,Cc1nc2ccc(C3CC3)nc2n2c(-c3cc(CC(C)(C)O)ccc3F)nnc12 [Example 80],< 5.00,
8.70,,6.00,Cc1ccc(CCC(C)(C)O)cc1-c1nnc2c(C)nc3ccc(C4CC4)nc3n12 [Example 68],5.08,
8.22,2.17,5.36,Cc1nc2ccc(C3CC3)nc2n2c(-c3cc(C(C)(C)O)ccc3Cl)nnc12 [Example 85],< 5.00,
8.40,,5.05,Cc1nc2ccc(C3CC3)nc2n2c(-c3cc(CC(C)(C)O)ccc3Cl)nnc12 [Example 83],< 5.00,
8.10,2.17,,Cc1ccc(OCC(C)(C)O)cc1-c1nnc2c(C)nc3ccc(C4CC4)nc3n12 [Example 48],< 5.00,
